# Experimental data reported in patent EP0252983B1, “SALTS OF N-(VINYLOXIETHYL)DITHIOCARBAMIC ACID, METHOD OF OBTAINING THEREOF AND […] ON THEM” (priority 1985, dated 1987).
# Legend:
# [1] = tested on: Acremonium charticola; assay: Mycelial growth inhibition on agar (contact activity); format: cell-based; conditions: Acremonium charticola, 120 h; Präparatkonzentration 0,0015 %; Würzeagar; read-out: Myzelhemmung in %
# [2] = Solubility in water (descriptive); format: physicochemical
# [3] = Acute toxicity (LD50) in mice; format: in vivo, weißen Mäusen; conditions: mouse, in vivo, po; perorale Applikation an weißen Mäusen; read-out: LD50
# [4] = tested on: Escherichia; assay: Bactericidal activity on agar (concentration of complete growth inhibition); format: cell-based; conditions: % bezogen auf den Wirkstoff; am 5. Tag; listed as Kaliumsalz
# Experimental: (§1) Geprüft wird die bakterizide Aktivität von Kalium-, Natrium-, Zink- und Kupfersalzen der N-(Vinyloxyäthyl)dithiocarbamidsäure gegen Bakterien der Gattungen Bacillus, Micrococcus, Pseudomonas, Escherichia und Xantomonas.
# (§2) Man stellt wäßrige Stofflösungen verschiedener Konzentration her, die so berechnet werden, daß die Stoffkonzentration in der Petri-Schale bei der Gabe von 1 ml Lösung in das geschmolzene Nährmedium (45 bis 50 °C) zwischen 0,003 und 25 % (bezogen auf den Wirkstoff) schwankt. Nach 18 bis 24 Stunden bringt man auf die Oberfläche des Nährmediums 0,1 ml wäßrige Suspension eintägiger reiner Kulturen von Bakterien auf und verteilt sie gleichmäßig. In Kontrollschalen verteilt sich 0,1 ml Wasser über die Oberfläche des Nährmediums. Die Inkubation erfolgt bei 37 °C innerhalb von 5 Tagen. Die Wirksamkeit der Stoffe wird nach dem Auftreten des Bakterienwachstums auf der Oberfläche des Nährmediums eingeschätzt. Die Prüfergebnisse sind in der Tabelle 13 dargestellt.
# [5] = tested on: Micrococcus; assay: as above; format: cell-based; conditions: % bezogen auf den Wirkstoff; am 5. Tag; listed as Kaliumsalz
# Experimental: as §1, §2
# [6] = tested on: Pseudomonas; assay: as above; format: cell-based; conditions: % bezogen auf den Wirkstoff; am 5. Tag; listed as Kaliumsalz
# Experimental: as §1, §2
# [7] = tested on: Bacillus; assay: as above; format: cell-based; conditions: % bezogen auf den Wirkstoff; am 5. Tag; listed as Kaliumsalz
# Experimental: as §1, §2
# [8] = tested on: Helminthosporium sativum; assay: Barley seed dressing against root rot (helminthosporiosis); format: in vivo; conditions: Aufwandmenge von 1 g/kg
# Experimental: Die Aktivität der Verbindung gegen Wurzelfäule (Helminthosporiose) der Gerste wurde unter Laborbedingungen untersucht. Gerstensamen, infiziert mit einer 7 Tage alten Pizkultur Helminthosporium sativum, wurden durch Präparaten ausgehend von 1 g Präparat (bezogen auf den Wirkstoff) je 1 kg Samen nach einem halbtrockenen Verfahren gebeizt, in Aufzuchträume mit befeuchtetem Sand gesät und innerhalb von 11 bis 14 Tagen bei einer zwischen 20 und 22 °C gehalten. Am 14 Tag schätzte man die Keimfähigkeit von Gerstensamen ein und ermittelte die Quote von durch Helminthosporiose befallenen Pflanzen. Die Prüfergebnisse sind in der Tabelle 4 dargestellt.
# [9] = tested on: Chaetomium globosum; assay: Mycelial growth inhibition on agar (contact activity); format: cell-based
# Experimental: (§3) Die Prüfungen werden nach dem Verfahren zur Ermittlung der Kontaktaktivität durchgeführt. Man verwendet das in Wasser gelöste Kalium-N-(vinyloxyäthyl)dithiocarbamat, führt es in ein Nährmedium ein und vergießt auf Petri-Schalen. Nach 24 Stunden wird mit Pilzmyzelium nach einem Stichverfahren geimpft. Dann temperiert man die Schalen innerhalb von 5 Tagen bei einer zwischen 24 und 26 °C liegenden Temperatur und mißt den Durchmesser von Pilzkolonien, ermittelt den Prozentsatz der Hemmung des Myzelwachstums (S) ausgehend von Angaben am 5. Tag nach der Abbott-Formel [drawing 13] worin dc für den Durchmesser der Pilzkolonien, de für den Durchmesser von Pilzkolonien in der Schale stehen, wo ein die zu prüfenden Stoffe enthaltendes Medium vorhanden ist. Dieses Verfahren zur Ermittlung der mikrobiologischen Aktivität ist in anderen Beispielen verwendet.
# [10] = tested on: Stereum hirsutum; assay: as above; format: cell-based; conditions: Stereum hirsutum, 120 h; Wirkstoffkonzentration 0,003 %; Tabelle 3; read-out: Mycelhemmung, in %
# Experimental: as §3
# [11] = tested on: Paecilomyces varioti; assay: as above; format: cell-based; conditions: Paecilomyces, 120 h; Wirkstoffkonzentration 0,003 %; Tabelle 3; read-out: Mycelhemmung, in %
# Experimental: as §3
# [12] = tested on: Penicillium funiculosum; assay: as above; format: cell-based
# Experimental: as §3
# [13] = tested on: Cladosporium cladosporioides; assay: as above; format: cell-based; conditions: Cladosporium cladosporioides, 120 h, Würzeagar, read-out: Myzelhemmung in %
# [14] = tested on: Acremonium cowum; assay: as above; format: cell-based; conditions: 120 h, Würzeagar, read-out: Myzelhemmung in %
# [15] = Storage stability (descriptive); format: physicochemical
# [16] = tested on: Verticillium dahliae; assay: Mycelial growth inhibition on agar (contact activity); format: cell-based; conditions: 120 h, Kartoffel-Glukose-Nährmedium, read-out: Myzelhemmung in %
# How it was run: (§4)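 Compound dissolved in water and mixed into potato-glucose agar poured into dishes. Mycelium stab-inoculated after 24 h, then incubated 5 days at 24–26 °C. Colony diameters measured on day 5, and % mycelial growth inhibition calculated by Abbott's formula.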
# [17] = tested on: Fusarium moniliforme; assay: as above; format: cell-based; conditions: Fusarium verticillioides, 120 h, Kartoffel-Glukose-Nährmedium, read-out: Myzelhemmung in %
# [18] = tested on: Botrytis cinerea; assay: as above; format: cell-based; conditions: 120 h, Kartoffel-Glukose-Nährmedium, read-out: Myzelhemmung in %
# How it was run: as §4
# [19] = tested on: Fusarium sambucinum; assay: as above; format: cell-based; conditions: Fusarium sambucinum, 120 h, Kartoffel-Glukose-Nährmedium, read-out: Myzelhemmung in %
# [20] = tested on: Venturia inaegualis; assay: as above; format: cell-based; conditions: 120 h, Kartoffel-Glukose-Nährmedium, read-out: Myzelhemmung in %
# How it was run: as §4
compound,measurement,setting,value
C=COCCNC(=S)S [Kalium-N-(vinyloxyäthyl)dithiocarbamat],inhibition of growth at 0.0015 %,[1],100%
same,Löslichkeit in Wasser,[2],gut
same,LD50,[3],1400 ± 350 mg/kg
same,"Konzentrationen, welche das Bakterienwachstum völlig (100 %) hemmen",[4],"0,05%"
same,"Konzentrationen, welche das Bakterienwachstum völlig (100 %) hemmen",[5],"0,05%"
same,"Konzentrationen, welche das Bakterienwachstum völlig (100 %) hemmen",[6],"0,05%"
same,"Konzentrationen, welche das Bakterienwachstum völlig (100 %) hemmen",[7],"0,05%"
same,Wirksamkeit als Beizmittel gegenüber Vergleichsmuster (TMTD und Polykarbazin),[8],zweimal wirksamer
same,inhibition of growth at 0.003 %,"[9]; Chaetomium globosum, 120 h, Wirkstoffkonzentration 0,003 %, Tabelle 3, read-out: Mycelhemmung, in %",100%
same,Aktivität übersteigt Polykarbazin (Vergleichsmuster),[9]; gegen das Myzelium der Pilze Chaetomium globosum,10%
same,inhibition of growth at 0.003 %,[10],100%
same,inhibition of growth at 0.003 %,[11],100%
same,inhibition of growth at 0.003 %,"[12]; Talaromyces funiculosus, 120 h, Wirkstoffkonzentration 0,003 %, Tabelle 3, read-out: Mycelhemmung, in %",100%
same,Aktivität übersteigt Salizylanilid (Vergleichsmuster),[12]; gegen Myzelium von Penicillium funiculosum,10%
same,inhibition of growth at 0.0015 %,"[13]; Präparatkonzentration 0,0015 %",100%
same,inhibition of growth at 0.003 %,"[13]; Präparatkonzentration 0,003 %",100%
same,inhibition of growth at 0.012 %,"[13]; Präparatkonzentration 0,012 %",100%
same,inhibition of growth at 0.0015 %,"[14]; Präparatkonzentration 0,0015 %",100%
same,inhibition of growth at 0.012 %,"[14]; Präparatkonzentration 0,012 %",100%
same,Lagerbeständigkeit,[15],lagerbeständig
same,inhibition of growth at 0.01 %,"[16]; Wirkstoffkonzentration 0,01 %",100%
same,inhibition of growth at 0.003 %,"[16]; Wirkstoffkonzentration 0,003 %",100%
same,inhibition of growth at 0.01 %,"[17]; Wirkstoffkonzentration 0,01 %",100%
same,inhibition of growth at 0.003 %,"[17]; Wirkstoffkonzentration 0,003 %",100%
same,inhibition of growth at 0.01 %,"[18]; Wirkstoffkonzentration 0,01 %",100%
same,inhibition of growth at 0.003 %,"[18]; Wirkstoffkonzentration 0,003 %",100%
same,inhibition of growth at 0.01 %,"[19]; Wirkstoffkonzentration 0,01 %",100%
same,inhibition of growth at 0.003 %,"[19]; Wirkstoffkonzentration 0,003 %",100%
same,inhibition of growth at 0.01 %,"[20]; Wirkstoffkonzentration 0,01 %",100%
same,inhibition of growth at 0.003 %,"[20]; Wirkstoffkonzentration 0,003 %",100%
